What was measured:
duck salad = test: Test C flood test plant response rating 0 to 100; format: in vivo, Heteranthera limosa; settings: for Plant response rating Duck salad: flood test species listed under POSTEMERGENCE, 0 to 100 scale
How it was run: (§1)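 Compounds in non-phytotoxic solvent went onto sandy loam before emergence (seeded one day earlier) or onto plants at the one-to-four leaf stage. Duck salad was treated via flood water (~2.5 cm, maintained) over silt loam.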

crabgrass [1] = test: Test B preemergence/postemergence greenhouse plant response rating 0 to 10; format: in vivo, Digitaria spp.; settings: 0 to 10 scale
How it was run: (§2)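 Test chemicals, dissolved in a non-phytotoxic solvent, were applied to soil at planting and, at the same time, over foliage of seedlings at the one to four leaf stage.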

barley = test: as above; format: in vivo, Hordeum vulgare; settings: 0 to 10 scale
How it was run: as §2

rice = test: Test C flood test plant response rating 0 to 100; format: in vivo, Oryza sativa; settings: for Plant response rating Rice Japonica: flood test species listed under POSTEMERGENCE, 0 to 100 scale
How it was run: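 Compounds in non-phytotoxic solvent applied preemergence to sandy loam one day after planting, postemergence at the 1–4 leaf stage, or to ~2.5 cm floodwater over silt loam.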

wild oat = test: Test C preemergence/postemergence greenhouse plant response rating 0 to 100; format: in vivo, Avena fatua; settings: POSTEMERGENCE; for Plant response rating, Wild oat: 0 to 100 scale
How it was run: as §1

giant foxtail [2] = test: Test B preemergence/postemergence greenhouse plant response rating 0 to 10; format: in vivo, Setaria faberii; settings: 0 to 10 scale
How it was run: as §2

barnyardgrass = test: as above; format: in vivo, Echinochloa crus-galli; settings: 0 to 10 scale
How it was run: as §2

crabgrass [3] = test: Test C preemergence/postemergence greenhouse plant response rating 0 to 100; format: in vivo, Digitaria sanguinalis; settings: POSTEMERGENCE; for Plant response rating, Crabgrass: 0 to 100 scale
How it was run: as §1

downy brome = test: as above; format: in vivo, Bromus tectorum; settings: POSTEMERGENCE; for Plant response rating Downy Brome: 0 to 100 scale
How it was run: as §1

wheat = test: Test B preemergence/postemergence greenhouse plant response rating 0 to 10; format: in vivo, Triticum aestivum; settings: 0 to 10 scale
How it was run: as §2

rape = test: as above; format: in vivo, Brassica napus; settings: 0 to 10 scale
How it was run: as §2

sorghum = test: as above; format: in vivo, Sorghum bicolor; settings: 0 to 10 scale
How it was run: as §2

chickweed [4] = test: as above; format: in vivo, Stellaria media; settings: 0 to 10 scale
How it was run: as §2

corn = test: as above; format: in vivo, Zea mays; settings: 0 to 10 scale
How it was run: as §2

wild buckwheat = test: Test C preemergence/postemergence greenhouse plant response rating 0 to 100; format: in vivo, Polygonum convolvulus; settings: POSTEMERGENCE; for Plant response rating, Wild buckwheat: 0 to 100 scale
How it was run: as §1

bedstraw = test: as above; format: in vivo, Galium aparine; settings: POSTEMERGENCE; for Plant response rating, Bedstraw: 0 to 100 scale
How it was run: as §1

chickweed [5] = test: as above; format: in vivo, Stellaria media; settings: POSTEMERGENCE; for Plant response rating, Chickweed: 0 to 100 scale
How it was run: as §1

giant foxtail [6] = test: as above; format: in vivo, Setaria faberii; settings: POSTEMERGENCE; for Plant response rating, Giant foxtail: 0 to 100 scale
How it was run: as §1

[7] = POSTEMERGENCE section, flood test, Rate 4 g/ha
[8] = Rate 16 g/ha, under POSTEMERGENCE head (flood test species)

C#CC(C)N1C(=O)COc2cc(F)c(-c3nn4c(c3Cl)CCCC4)cc21 (stereo not drawn) [Compound 50]
30: Plant response rating, Wild oat (wild oat; 62 g/ha) | Plant response rating (0 to 100), Downy Brome (downy brome; Rate 4 g/ha) | Plant response rating (0 to 100), Chickweed (chickweed [5]; Rate 4 g/ha) | Plant response rating (0 to 100), Giant foxtail (giant foxtail [6]; Rate 4 g/ha)
25: Plant response rating (0 to 100), Rice Japonica (rice; [7])
65: Plant response rating Rice Japonica (rice; 62 g/ha)
60: Plant response rating (0 to 100), Rice Japonica (rice; [8]) | Plant response rating Downy Brome (downy brome; 250 g/ha) | Plant response rating (0 to 100), Bedstraw (bedstraw; Rate 16 g/ha)
8: Plant response rating, Rape (rape; PREEMERGENCE, Rate 50 g/ha)
3: Plant response rating, Crabgrass (crabgrass [1]; POSTEMERGENCE, Rate 10 g/ha) | Plant response rating, Barley (barley; POSTEMERGENCE, Rate 10 g/ha) | Plant response rating, Giant foxtail (giant foxtail [2]; PREEMERGENCE, Rate 50 g/ha) | Plant response rating, Barnyardgrass (barnyardgrass; POSTEMERGENCE, Rate 10 g/ha) | Plant response rating, Sorghum (sorghum; POSTEMERGENCE, Rate 50 g/ha) | Plant response rating, Corn (corn; POSTEMERGENCE, Rate 10 g/ha)
50: Plant response rating, Wild oat (wild oat; 250 g/ha) | Plant response rating, Crabgrass (crabgrass [3]; 250 g/ha) | Plant response rating Downy Brome (downy brome; 62 g/ha) | Plant response rating, Giant foxtail (giant foxtail [6]; 62 g/ha) | Plant response rating, Giant foxtail (giant foxtail [6]; 250 g/ha) | Plant response rating (0 to 100), Giant foxtail (giant foxtail [6]; Rate 16 g/ha)
0: Plant response rating (0 to 100), Duck salad (duck salad; [7]) | Plant response rating (0 to 100), Duck salad (duck salad; [8]) | Plant response rating Duck salad (duck salad; 62 g/ha) | Plant response rating, Crabgrass (crabgrass [1]; PREEMERGENCE, Rate 10 g/ha) | Plant response rating, Crabgrass (crabgrass [1]; PREEMERGENCE, Rate 50 g/ha) | Plant response rating, Barley (barley; PREEMERGENCE, Rate 10 g/ha) | Plant response rating, Barley (barley; PREEMERGENCE, Rate 50 g/ha) | Plant response rating, Giant foxtail (giant foxtail [2]; PREEMERGENCE, Rate 10 g/ha) | Plant response rating, Barnyardgrass (barnyardgrass; PREEMERGENCE, Rate 10 g/ha) | Plant response rating, Barnyardgrass (barnyardgrass; PREEMERGENCE, Rate 50 g/ha) | Plant response rating (0 to 100), Downy Brome (downy brome; Rate 1 g/ha) | Plant response rating, Wheat (wheat; PREEMERGENCE, Rate 50 g/ha) | Plant response rating, Sorghum (sorghum; PREEMERGENCE, Rate 50 g/ha) | Plant response rating, Chickweed (chickweed [4]; PREEMERGENCE, Rate 10 g/ha) | Plant response rating, Corn (corn; PREEMERGENCE, Rate 50 g/ha) | Plant response rating (0 to 100), Wild buckwheat (wild buckwheat; Rate 1 g/ha)
9: Plant response rating, Rape (rape; POSTEMERGENCE, Rate 10 g/ha) | Plant response rating, Chickweed (chickweed [4]; POSTEMERGENCE, Rate 10 g/ha)
4: Plant response rating, Crabgrass (crabgrass [1]; POSTEMERGENCE, Rate 50 g/ha) | Plant response rating, Barley (barley; POSTEMERGENCE, Rate 50 g/ha) | Plant response rating, Giant foxtail (giant foxtail [2]; POSTEMERGENCE, Rate 10 g/ha) | Plant response rating, Giant foxtail (giant foxtail [2]; POSTEMERGENCE, Rate 50 g/ha) | Plant response rating, Barnyardgrass (barnyardgrass; POSTEMERGENCE, Rate 50 g/ha) | Plant response rating, Wheat (wheat; POSTEMERGENCE, Rate 10 g/ha) | Plant response rating, Wheat (wheat; POSTEMERGENCE, Rate 50 g/ha) | Plant response rating, Sorghum (sorghum; POSTEMERGENCE, Rate 10 g/ha) | Plant response rating, Corn (corn; POSTEMERGENCE, Rate 50 g/ha)
80: Plant response rating (0 to 100), Wild buckwheat (wild buckwheat; Rate 16 g/ha) | Plant response rating (0 to 100), Chickweed (chickweed [5]; Rate 16 g/ha)
40: Plant response rating, Crabgrass (crabgrass [3]; 62 g/ha) | Plant response rating (0 to 100), Downy Brome (downy brome; Rate 16 g/ha)
100: Plant response rating, Wild buckwheat (wild buckwheat; 62 g/ha) | Plant response rating, Wild buckwheat (wild buckwheat; 250 g/ha) | Plant response rating, Bedstraw (bedstraw; 62 g/ha) | Plant response rating, Bedstraw (bedstraw; 250 g/ha) | Plant response rating, Chickweed (chickweed [5]; 62 g/ha) | Plant response rating, Chickweed (chickweed [5]; 250 g/ha)
20: Plant response rating (0 to 100), Wild oat (wild oat; Rate 4 g/ha) | Plant response rating (0 to 100), Wild oat (wild oat; Rate 16 g/ha) | Plant response rating (0 to 100), Crabgrass (crabgrass [3]; Rate 4 g/ha) | Plant response rating (0 to 100), Crabgrass (crabgrass [3]; Rate 16 g/ha) | Plant response rating (0 to 100), Wild buckwheat (wild buckwheat; Rate 4 g/ha) | Plant response rating (0 to 100), Bedstraw (bedstraw; Rate 4 g/ha) | Plant response rating (0 to 100), Chickweed (chickweed [5]; Rate 1 g/ha) | Plant response rating (0 to 100), Giant foxtail (giant foxtail [6]; Rate 1 g/ha)
90: Plant response rating Duck salad (duck salad; 250 g/ha) | Plant response rating Rice Japonica (rice; 250 g/ha)
10: Plant response rating (0 to 100), Wild oat (wild oat; Rate 1 g/ha) | Plant response rating (0 to 100), Crabgrass (crabgrass [3]; Rate 1 g/ha) | Plant response rating, Rape (rape; POSTEMERGENCE, Rate 50 g/ha) | Plant response rating, Chickweed (chickweed [4]; POSTEMERGENCE, Rate 50 g/ha) | Plant response rating, Chickweed (chickweed [4]; PREEMERGENCE, Rate 50 g/ha) | Plant response rating (0 to 100), Bedstraw (bedstraw; Rate 1 g/ha)
